Assay [1] deals with T1, Serine/threonine-protein kinase ULK1 (Homo sapiens, UniProt O75385).
T1 sequence (O75385 whole entry): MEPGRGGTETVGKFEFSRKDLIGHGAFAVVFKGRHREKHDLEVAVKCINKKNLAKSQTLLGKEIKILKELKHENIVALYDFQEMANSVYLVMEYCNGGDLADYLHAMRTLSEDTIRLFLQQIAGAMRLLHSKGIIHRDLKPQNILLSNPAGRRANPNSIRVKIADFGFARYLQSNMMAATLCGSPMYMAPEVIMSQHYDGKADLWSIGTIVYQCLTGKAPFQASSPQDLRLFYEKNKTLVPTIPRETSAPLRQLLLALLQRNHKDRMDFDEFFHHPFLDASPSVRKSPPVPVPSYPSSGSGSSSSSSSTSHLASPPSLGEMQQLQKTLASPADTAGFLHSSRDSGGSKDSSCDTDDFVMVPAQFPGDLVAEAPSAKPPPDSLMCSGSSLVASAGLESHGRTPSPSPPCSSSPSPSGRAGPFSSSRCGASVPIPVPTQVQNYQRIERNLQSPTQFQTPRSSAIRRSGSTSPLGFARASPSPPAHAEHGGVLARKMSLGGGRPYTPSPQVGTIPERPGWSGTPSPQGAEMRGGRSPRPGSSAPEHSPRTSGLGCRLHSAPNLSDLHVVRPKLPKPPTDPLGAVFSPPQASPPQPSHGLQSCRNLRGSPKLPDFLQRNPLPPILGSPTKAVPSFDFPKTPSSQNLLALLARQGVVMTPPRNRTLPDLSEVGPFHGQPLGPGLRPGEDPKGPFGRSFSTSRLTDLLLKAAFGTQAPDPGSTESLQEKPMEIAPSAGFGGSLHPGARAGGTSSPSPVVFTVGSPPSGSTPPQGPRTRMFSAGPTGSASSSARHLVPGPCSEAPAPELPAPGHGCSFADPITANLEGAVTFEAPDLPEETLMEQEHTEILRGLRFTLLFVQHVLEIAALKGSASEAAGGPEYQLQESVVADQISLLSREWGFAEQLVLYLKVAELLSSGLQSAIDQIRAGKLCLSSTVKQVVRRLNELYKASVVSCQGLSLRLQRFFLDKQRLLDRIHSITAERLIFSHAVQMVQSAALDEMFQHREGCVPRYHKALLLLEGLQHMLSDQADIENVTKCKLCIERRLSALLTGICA
Description: Binding affinity to human ULK1 by KINOMEscan assay

The target in assay [2] is Cytochrome P450 2C9 (Homo sapiens, UniProt P11712). In words: Inhibition of CYP2C9 in human liver microsomes assessed as diclofenac 4-hydroxylation reaction measured after 30 mins by LC/MS/MS analysis. Format: ADME, Microsome.
Sequence of Cytochrome P450 2C9 (P11712 whole entry): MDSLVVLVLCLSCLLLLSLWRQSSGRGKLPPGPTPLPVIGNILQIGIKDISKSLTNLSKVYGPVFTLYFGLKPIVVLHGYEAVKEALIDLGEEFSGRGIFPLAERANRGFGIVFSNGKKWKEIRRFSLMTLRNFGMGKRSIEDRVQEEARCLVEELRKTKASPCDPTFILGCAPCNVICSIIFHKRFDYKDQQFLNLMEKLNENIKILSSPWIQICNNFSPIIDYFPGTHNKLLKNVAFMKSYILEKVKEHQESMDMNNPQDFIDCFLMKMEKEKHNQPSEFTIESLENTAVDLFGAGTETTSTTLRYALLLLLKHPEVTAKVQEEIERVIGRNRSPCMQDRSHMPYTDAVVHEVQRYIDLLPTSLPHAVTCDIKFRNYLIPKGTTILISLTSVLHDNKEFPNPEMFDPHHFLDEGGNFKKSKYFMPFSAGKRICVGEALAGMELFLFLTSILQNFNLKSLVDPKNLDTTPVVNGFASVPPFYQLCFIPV
Assay [3] addresses MAP kinase-interacting serine/threonine-protein kinase 2 (Homo sapiens, UniProt Q9HBH9). In words: Binding affinity to human MKNK2 by KINOMEscan assay.
The target in assay [4] is T2, Receptor-type tyrosine-protein kinase FLT3 (Homo sapiens, UniProt P36888).
T2 sequence (P36888 whole entry): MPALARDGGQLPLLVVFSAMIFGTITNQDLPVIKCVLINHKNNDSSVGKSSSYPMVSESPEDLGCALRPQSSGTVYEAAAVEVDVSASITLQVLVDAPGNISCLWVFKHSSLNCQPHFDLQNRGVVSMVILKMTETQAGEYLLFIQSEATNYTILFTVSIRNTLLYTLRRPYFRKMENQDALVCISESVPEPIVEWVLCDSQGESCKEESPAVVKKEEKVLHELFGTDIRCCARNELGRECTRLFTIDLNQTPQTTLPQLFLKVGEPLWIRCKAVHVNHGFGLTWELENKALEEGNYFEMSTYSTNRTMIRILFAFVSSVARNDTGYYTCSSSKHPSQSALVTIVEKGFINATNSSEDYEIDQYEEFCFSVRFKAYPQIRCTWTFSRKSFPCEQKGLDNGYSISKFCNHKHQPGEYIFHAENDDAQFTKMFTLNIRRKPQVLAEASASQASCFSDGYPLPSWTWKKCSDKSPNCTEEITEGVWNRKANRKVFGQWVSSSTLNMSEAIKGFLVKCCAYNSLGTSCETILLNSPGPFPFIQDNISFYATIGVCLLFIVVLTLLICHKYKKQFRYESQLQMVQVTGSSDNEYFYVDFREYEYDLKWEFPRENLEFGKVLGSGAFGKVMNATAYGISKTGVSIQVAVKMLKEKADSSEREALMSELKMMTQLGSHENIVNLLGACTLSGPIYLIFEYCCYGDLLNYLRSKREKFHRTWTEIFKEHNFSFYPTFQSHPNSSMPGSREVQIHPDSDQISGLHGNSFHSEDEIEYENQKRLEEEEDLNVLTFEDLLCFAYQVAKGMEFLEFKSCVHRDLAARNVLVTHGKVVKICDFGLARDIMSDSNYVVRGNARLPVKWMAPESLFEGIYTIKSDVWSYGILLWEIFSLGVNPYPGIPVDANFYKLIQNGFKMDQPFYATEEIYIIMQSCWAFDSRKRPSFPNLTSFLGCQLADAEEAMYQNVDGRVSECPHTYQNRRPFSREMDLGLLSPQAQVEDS
In words: Binding affinity to human FLT3 by KINOMEscan assay.

This note sets out measurements from ChEMBL document CHEMBL6109120, “Discovery of Novel SIK2/3 Inhibitors for the Potential Treatment of MEF2C+ Acute Myeloid Leukemia (AML)” (J Med Chem, 2025).

Each structure is given as a SMILES string.

Sequence of MAP kinase-interacting serine/threonine-protein kinase 2 (Q9HBH9 whole entry): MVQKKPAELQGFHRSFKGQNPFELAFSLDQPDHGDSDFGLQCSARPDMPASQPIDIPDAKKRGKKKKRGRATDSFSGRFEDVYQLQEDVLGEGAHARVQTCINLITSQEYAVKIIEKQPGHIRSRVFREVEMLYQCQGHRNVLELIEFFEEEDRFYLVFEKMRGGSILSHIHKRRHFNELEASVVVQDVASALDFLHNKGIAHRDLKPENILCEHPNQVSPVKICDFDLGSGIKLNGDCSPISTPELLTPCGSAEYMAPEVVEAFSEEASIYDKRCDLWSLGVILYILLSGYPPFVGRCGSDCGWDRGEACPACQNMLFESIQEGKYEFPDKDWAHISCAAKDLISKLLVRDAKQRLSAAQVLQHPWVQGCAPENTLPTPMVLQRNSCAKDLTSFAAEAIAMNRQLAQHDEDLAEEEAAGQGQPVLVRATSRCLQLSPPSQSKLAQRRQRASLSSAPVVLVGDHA

As for `COc1nc(-c2cc(-c3cnn(C)c3)cnc2N)cc2c1C(=O)N(CC(F)(F)F)CC2`, the half-maximal inhibitory concentration (IC50) in assay [1] is 586 nM; in assay [2], greater than 50000 nM; in assay [3] it was 15 nM; in assay [4], 85 nM.
